Values quoted from earlier work as cited in patent US20220061318A1, “ANTIMICROBIAL PREVENTIVE NETTING” (University of Washington, priority 2020, published 2022).

Conditions: photosensitizer, singlet oxygen generation; riboflavin value depends on the test conditions

SMILES | quantum yield
CN(C)c1ccc2nc3ccc(=[N+](C)C)cc-3sc2c1 [Methylene blue, methylene blue] | 0.52
O=C1OC2(c3ccccc31)c1cc(I)c(O)c(I)c1Oc1c2cc(I)c(O)c1I [erythrosine] | around 0.6
